{"source": "patent US12611456B2", "about": "“Use of thiazole amide compounds for modulating human immune response” (Children's Medical Center Corporation, priority 2019, dated 2026)", "key": {"[1]": {"test_system": "THP1-NF-κB cells", "assay": "THP1 cell adherence assay", "format": "cell-based, human", "settings": "33 μM, PMA and R848 positive controls", "method": "(§1) Following incubation and supernatant transfer described above, each black assay plate was manually washed. First, remaining suspension cells were expelled into a bath of 15% bleach by shaking the plate upside down. The plate was then submerged in a 7 L bath of 1×PBS. Once submerged, each plate was shaken vigorously side-to-side to release any air bubbles forming in the wells. The plate was then removed and shaken into the bleach bath once again. This process was repeated 3 times per plate. 30 μL/well of a mix of 2 μg/mL Hoechst 33342 in PBS with 1% Para-formaldehyde was added using a Combi liquid dispenser to the washed assay plates. Plates were left in the dark to stain and fix for 20 minutes. Washed and stained assay plates were then loaded onto an Acumen laser scanning cytometer. Total fluorescence area and number of objects (nuclei) were measured using the instrument for each well. This assay was adapted to a 96 well format to confirm and expand the HTS results. […] After 24 hours of incubation (37° C., 5% CO2), plates were washed with PBS to determine the number of adherent cells Alternatively, plates were spun down (500×g, room temperature, 5 minutes) and cells were harvested for staining with fluorescent Annexin V or antibodies against co-stimulatory markers CD80 and CD86 (Biolegend) according to the manufacturer's protocols and analyzed by flow cytometry (BD LSRFortessa)."}, "[2]": {"test_system": "THP1-NF-κB cells", "assay": "Expression of co-stimulatory molecules CD80 and CD86 by flow cytometry", "format": "cell-based, human", "settings": "33 μM", "method": "as §1"}, "[3]": {"test_system": "THP1-NF-κB cells", "assay": "Annexin V staining for apoptotic cells", "format": "cell-based, human", "settings": "33 μM", "method": "as §1"}, "[4]": {"test_system": "NF-κB", "assay": "NF-κB activity in THP1-dual NF-κB/IRF reporter cells", "format": "cell-based, human", "settings": "22-24 hr, 100, 25, 6.25 and 1.56 μM, fold over DMSO", "text": "(§2) The THP1-NF-κB Lucia, THP1-dual NF-κB/IRF parent cell line, knocked out for MyD88 (THP1-AMyD88), TBK1 (THP1-ΔTBK1), IRF3 (THP1-AIRF3), cGAS (THP1-AcGAS), STING (THP1-ASTING), or expressing murine STING were obtained from Invivogen (San Diego, CA). THP1-derived cell lines are human monocytic cells derived from the blood of a child with leukemia and contain NF-κB- and IRF-inducible reporter construct to allow colorimetric- or luminescence-based assessment of NF-κB and IRF activities. THP1 cells were cultured in RPMI 1640 supplemented with 10% non-heat inactivated fetal bovine serum (FBS), 10 mM HEPES, 1.0 mM sodium pyruvate, 50 ug/ml Pen-Strep, and 100 ug/mL Normocin™. Once cultured, the cells were stored in a 37° C. incubator with 5% CO2 and a humidified atmosphere. Cells were passaged every 2-3 days and not allowed to exceed a concentration of 2.0×10^6 cells/ml media.\n(§3) Briefly, THP1-dual NF-κB/IRF parent and derived cell lines were resuspended at a concentration of 10^5 cells/200 μl of THP1 culture medium and transferred to a 96-well plate pre-loaded with compounds dissolved in DMSO. In selected experiments, THP1 cells were also stimulated with TNF and IFNβ as controls for NF-κB and IRF activities, respectively. […]"}, "[5]": {"test_system": "IRF", "assay": "IRF activity in THP1-dual NF-κB/IRF reporter cells", "format": "cell-based, human", "settings": "22-24 hr, 100, 25, 6.25 and 1.56 μM, fold over DMSO", "text": "as §2, §3"}, "[6]": {"test_system": "MyD88", "assay": "NF-κB and IRF activities in THP1 cells knocked out for MyD88, TBK1 or IRF3", "format": "cell-based, human", "settings": "25 μM, 22-24 hr, knockout vs parent THP1 cells", "text": "as §2, §3"}, "[7]": {"test_system": "STING", "assay": "NF-κB and IRF activities in THP1 cells knocked out for cGAS or STING", "format": "cell-based, human", "settings": "25 μM, 22-24 hr, knockout vs parent THP1 cells", "text": "as §2, §3"}, "[8]": {"molecular_target": "T1, murine STING (Mus musculus, UniProt Q3TBT3)", "T1 construct": "host or cells: THP1-dual NF-κB/IRF reporter cells (human monocytic line) expressing murine STING", "T1 sequence (Q3TBT3 1-378)": "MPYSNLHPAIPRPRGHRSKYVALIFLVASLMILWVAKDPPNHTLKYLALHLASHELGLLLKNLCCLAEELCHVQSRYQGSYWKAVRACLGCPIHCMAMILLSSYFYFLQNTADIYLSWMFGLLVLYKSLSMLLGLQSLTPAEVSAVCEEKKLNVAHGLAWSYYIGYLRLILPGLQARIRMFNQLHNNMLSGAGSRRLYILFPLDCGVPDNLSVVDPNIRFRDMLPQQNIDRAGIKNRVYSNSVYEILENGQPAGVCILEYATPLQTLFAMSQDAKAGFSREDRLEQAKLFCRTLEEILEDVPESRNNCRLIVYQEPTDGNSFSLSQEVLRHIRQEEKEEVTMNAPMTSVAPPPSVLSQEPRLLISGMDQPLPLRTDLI", "assay": "NF-κB and IRF activities in THP1-dual reporter cells expressing murine STING", "format": "cell-based", "settings": "25 μM, 22-24 hr, fold over DMSO", "text": "as §2, §3"}, "[9]": {"test_system": "NF-κB", "assay": "THP1-NF-κB reporter cell line, luminescence", "format": "cell-based, human", "settings": "THP1-NF-κB cells, 100 to 0.02 μM", "text": "as §2\nTHP1-NF-κB cells between passage 15 and 18 and suspended in culture medium were dispensed into 384-well black clear-bottom plates (Corning 3712) at 30,000 cells/30 μl/well using a Combi liquid dispenser. To allow comparison to a benchmark small molecule with known immune stimulating activity, cells at the same concentration were stimulated with 50 μM R848, a TLR7/8 agonist, in 0.3% DMSO and added to every other well of column 24, which was left empty of cells, by multichannel pipette at the same volume. Five μl of 700 nM Phorbol myristate acetate (PMA) in THP1 culture media and 2.3% DMSO, a known peripheral blood cell mitogen, was added to every other well of column 23 by multichannel pipette (final concentration in well: 100 nM in 0.3% DMSO). Five μl of THP1 culture media with 2.3% DMSO was added to the remaining wells of column 23 by multichannel pipette (final concentration 0.3% DMSO). One hundred nl aliquots of library compounds diluted in 100% DMSO were transferred from their original 384-well plates to the assay plates using a Seiko pin transfer machine. Each library plate was pinned in duplicate, yielding two assay plates with identical conditions for comparison. Plates were then incubated for 24 hours at 37 C with 5% CO2 in humid conditions. Following incubation, 10 μL of supernatant was removed from each well and transferred to a white plate (Corning 3570) using a Vprep liquid transfer machine. 10 μL of recombinant Lucia protein (Invivogen) diluted 1:2000 in THP1 culture media was added to empty well 24P. Using a Combi liquid dispenser, 50 μL/well of Quanti-Luc substrate (Invivogen) diluted 1:3 in sterile water was added to the assay plate. Immediately after adding the substrate, the luminescence was read using a PerkinElmer Envision plate reader. This assay was adapted to a 96 well format to confirm and expand the HTS results."}, "[10]": {"test_system": "IRF", "assay": "THP1-ISG reporter cell line, luminescence", "format": "cell-based, human", "settings": "THP1-ISG cells, 100 to 0.02 μM", "text": "High throughput screen (HTS) overview: To identify small molecule immunomodulators/adjuvants that robustly activate human immune cells, ˜200,000 small molecules were screened and tested against THP1 cells. The chemical libraries screened included known bioactive and commercial libraries from various sources including commercial libraries such as ChemDiv, ChemBridge, and Asinex. All libraries were owned and provided by the Institute of Chemistry and Cell Biology (ICCB)—Longwood (Harvard Medical School). The project primary screen incorporated two distinct arms: a) a luciferase-based screen which corresponds to the relative activation of the human NFκB Reporter gene; and b) a fluorescence-based screen, corresponding to the phenotypic adherence, a distinct marker of cell activation, of the THP1 cells. In a secondary luciferase-based screen IRF-inducing activities of selected hits using a THP1-ISG reporter cell line were evaluated. Here, discovery of a thiazole amide small molecule family with both NFκB/IRF-inducing and leukocyte adherence-inducing activities towards human leukocytes was observed.\nBriefly, THP1-dual NF-κB/IRF parent and derived cell lines were resuspended at a concentration of 10^5 cells/200 μl of THP1 culture medium and transferred to a 96-well plate pre-loaded with compounds dissolved in DMSO. In selected experiments, THP1 cells were also stimulated with TNF and IFNβ as controls for NF-κB and IRF activities, respectively. After 22-24 hours of incubation (37° C., 5% CO2), plates were spun down (500×g, room temperature, 5 minutes) and supernatants were harvested to assess NF-κB and IRF activities by measuring the levels of SEAP and Lucia luciferase with Quanti-Blue and Quanti-Luc, respectively."}, "[11]": {"test_system": "C57BL/6 mice", "assay": "Influenza rHA immunization of mice, anti-rHA IgG by ELISA", "settings": "rHA + compound vs rHA alone; for adjuvant activity: anti-rHA IgG titers: prime Day 0, boost Day 28, serum Day 28 and Day 42, i.m., 100 nmol", "description": "C57BL/6 mice were obtained from Charles River Laboratories and housed in specific pathogen-free conditions in the animal research facilities at Boston Children's Hospital.\nFor immunization experiments, adult mice were immunized intramuscularly (i.m.) in the right posterior thigh with 50 μl of vaccine containing 0.33 μg of each of the following recombinant influenza virus hemagglutinins (rHA): A/Michigan/45/2015 (H1N1), A/Hong Kong/4801/2014 (H3N2), and B/Brisbane/60/2008, contained in the 2016-2017 formulation of the FluBlok vaccine (Protein Sciences Corp.). Mice were immunized with a prime-boost schedule (two injections four weeks apart). Vaccine in all experimental groups was formulated with 10% (v/v) DMSO and 5% (v/v) Tween-80. As indicated for specific experimental groups, vaccine was also formulated with compound 057 (100 nmol, final DMSO concentration 10%). Serum was collected 28 days post-prime (pre-boost blood sample) and 14 days post-boost for antibody detection. rHA-specific IgG were quantified by ELISA. High binding flat bottom 96-well plates (Corning Life Sciences) were coated with 1 μg/ml rHA in carbonate buffer pH 9.6, incubated overnight at 4° C. and blocked with PBS+BSA 1% (Sigma-Aldrich) for 1 h at room temperature (RT). Then, sera from vaccinated mice were added with an initial dilution of 1:100 and 1:4 serial dilutions in PBS+BSA 1% and incubated for 2 hrs at RT. Plates were then washed and incubated for 1 hr at RT with HRP-conjugated anti-mouse IgG (Southern Biotech). At the end of the incubation plates were washed again and developed with tetramethylbenzidine (BD Biosciences) for 5 minutes, then stopped with 1 N H2SO4. The optical density was read at 450 nm Versamax microplate reader with SoftMax Pro Version 5 (both from Molecular Devices) and endpoint titers were calculated using as cutoff three times the optical density of the background."}}, "note": "“Also recorded” adds a separate entry of the source."}
{"compound": "CCOc1ccc2nc(NC(=O)Cc3csc(NC(=O)c4cc(OC)cc(OC)c4)n3)sc2c1", "note": "[Compound 057]", "values": [{"measurement": "cell adherence (number of adherent cells)", "setting": "[1]", "value": "induces cell adherence; also recorded: elicits human leukocyte adherence"}, {"measurement": "expression of co-stimulatory molecules CD80 and CD86 (MFI)", "setting": "[2]", "value": "induces the expression co-stimulatory molecules; also recorded: elicited the expression of surface co-stimulatory molecules; also recorded: elicits"}, {"measurement": "apoptosis (Annexin V+ cells)", "setting": "[3]", "value": "does not induce apoptosis; also recorded: without inducing cellular apoptosis"}, {"measurement": "NF-κB activity", "setting": "[4]", "value": "dose-dependent response; also recorded: elicited both NFκB and IRF activities; also recorded: elicits"}, {"measurement": "IRF activity", "setting": "[5]", "value": "dose-dependent response; also recorded: elicited both NFκB and IRF activities; also recorded: elicits"}, {"measurement": "dependence of NF-κB and IRF activities on MyD88", "setting": "[6]", "value": "MyD88-independent"}, {"measurement": "dependence of NF-κB and IRF activities on STING", "setting": "[7]", "value": "STING-dependent"}, {"measurement": "activation of murine STING (NF-κB and IRF activities)", "setting": "[8]", "value": "activates murine STING; also recorded: activated THP1 cells expressing murine STING"}, {"measurement": "NFκB-inducing activity (RLU)", "setting": "[9]", "value": "concentration-dependent activity; also recorded: robustly induces both NFκB and IRF activities"}, {"measurement": "IRF-inducing activity (RLU)", "setting": "[10]", "value": "concentration-dependent activity; also recorded: robustly induces both NFκB and IRF activities"}, {"measurement": "adjuvant activity: anti-rHA IgG titers", "setting": "[11]", "value": "exerts adjuvant activity in vivo; also recorded: substantially higher antibody titers; also recorded: demonstrates in vivo adjuvanticity in mice"}, {"measurement": "adjuvant activity: anti-rHA IgG titers", "setting": "[11]; listed as PVP-057", "value": "demonstrates in vivo adjuvanticity in mice"}, {"measurement": "adjuvant activity: rHA-specific IgG titers", "setting": "[11]; single i.m. injection Day 0, serum Day 14", "value": "exerts adjuvant activity in vivo; also recorded: substantially higher antibody titers"}]}
{"compound": "COc1ccc(C(=O)Nc2nc(CC(=O)Nc3nc4ccccc4s3)cs2)cc1OC", "note": "[Compound 57.3]", "values": [{"measurement": "NFκB-inducing activity (RLU)", "setting": "[9]", "value": "comparable to or greater than the parent molecule 057"}, {"measurement": "NFκB-inducing activity (RLU)", "setting": "[9]; listed as 057.3", "value": "concentration-dependent activity"}, {"measurement": "IRF-inducing activity (RLU)", "setting": "[10]", "value": "comparable to or greater than the parent molecule 057"}, {"measurement": "IRF-inducing activity (RLU)", "setting": "[10]; listed as 057.3", "value": "concentration-dependent activity"}]}
{"compound": "COc1ccc(C(=O)Nc2nc(CC(=O)Nc3nc4ccc(S(C)(=O)=O)cc4s3)cs2)cc1", "note": "[Compound 57.2]", "values": [{"measurement": "NFκB-inducing activity (RLU)", "setting": "[9]", "value": "comparable to or greater than the parent molecule 057"}, {"measurement": "NFκB-inducing activity (RLU)", "setting": "[9]; listed as 057.2", "value": "concentration-dependent activity"}, {"measurement": "IRF-inducing activity (RLU)", "setting": "[10]", "value": "comparable to or greater than the parent molecule 057"}, {"measurement": "IRF-inducing activity (RLU)", "setting": "[10]; listed as 057.2", "value": "concentration-dependent activity"}]}
